From patent publication US20200325139A1, “NEW ANTIBIOTICS TARGETING MYCOBACTERIA” (priority 2017, published 2020)
Read-outs that look alike come from different tables or passages of the source.

Tests used:
BlaMab = experiment: Carbamoylation of β-lactamase by DBOs, nitrocefin spectrophotometry; format: biochemical, Mycobacterium abscessus; conditions: for Carbamoylation efficacy of β-lactamase BlaMab: 20° C., nitrocefin 100 μM, MES pH 6.4
Ldtfm = experiment: Inhibition of L,D-transpeptidase by DBOs, residual nitrocefin hydrolysis; format: biochemical, E. faecium; conditions: 260 min at 37° C.
M. abscessus CIP104536 = experiment: MIC of amoxicillin in presence or absence of DBOs, microdilution; format: cell-based; conditions: for Fold reduction in the MIC of amoxicillin: M. abscessus, DBO 15 μM; for MIC of amoxicillin / MIC: M. abscessus CIP104536, DBO at 15 μM, listed as None = amoxicillin alone; for MIC: Mycobacteroides abscessus
M. tuberculosis H37Rv = experiment: microbe, parasite or virus in culture; format: cell-based; conditions: for MIC: Mycobacterium tuberculosis, H37RV
BlaC = BlaC (Mycobacterium tuberculosis, UniProt P9WKD3); experiment: Carbamoylation of β-lactamase by DBOs, nitrocefin spectrophotometry; format: biochemical; conditions: for Carbamoylation efficacy of β-lactamase BlaC: 20° C., nitrocefin 100 μM, MES pH 6.4, highest DBO concentration 100 μM
LdtMt2 = LdtMt2 (Mycobacterium tuberculosis, UniProt I6Y9J2); experiment: Inhibition of L,D-transpeptidase by DBOs, residual nitrocefin hydrolysis; format: biochemical, M. tuberculosis; conditions: 260 min, Inhibitor/LdtMt2 molar ratio 20 (DBO 200 μM, enzyme 10 μM); 260 min at 37° C.; read-out: Residual activity of LdtMt2 following pre-incubation
[1] = system: M. abscessus CIP104536 ΔblaMab; experiment: microbe, parasite or virus in culture; format: cell-based; conditions: for MIC: Mycobacteroides abscessus
[2] = system: M. tuberculosis H37Rv ΔblaC; experiment: microbe, parasite or virus in culture; format: cell-based; conditions: for MIC: Mycobacterium tuberculosis, H37RV
[3] = Inhibitor/Ldtfm molar ratio 1, enzyme 10 μM
[4] = Inhibitor/Ldtfm molar ratio 2.5, enzyme 10 μM
[5] = Inhibitor/Ldtfm molar ratio 5, enzyme 10 μM
[6] = Inhibitor/Ldtfm molar ratio 10, enzyme 10 μM
[7] = Inhibitor/Ldtfm molar ratio 20 (DBO 200 μM, enzyme 10 μM)
[8] = read-out: MIC of amoxicillin against indicated strain

LdtMt2, sequence (I6Y9J2 55-408): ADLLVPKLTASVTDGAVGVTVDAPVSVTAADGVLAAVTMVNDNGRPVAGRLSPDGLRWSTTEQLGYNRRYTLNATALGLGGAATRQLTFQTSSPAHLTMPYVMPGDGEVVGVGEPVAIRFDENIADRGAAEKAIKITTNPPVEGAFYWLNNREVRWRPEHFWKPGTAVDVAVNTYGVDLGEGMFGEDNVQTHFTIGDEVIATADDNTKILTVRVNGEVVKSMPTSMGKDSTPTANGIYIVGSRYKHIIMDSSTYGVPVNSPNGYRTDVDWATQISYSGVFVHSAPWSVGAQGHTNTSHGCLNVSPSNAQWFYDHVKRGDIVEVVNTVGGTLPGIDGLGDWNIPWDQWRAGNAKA
BlaC, sequence (P9WKD3 39-306): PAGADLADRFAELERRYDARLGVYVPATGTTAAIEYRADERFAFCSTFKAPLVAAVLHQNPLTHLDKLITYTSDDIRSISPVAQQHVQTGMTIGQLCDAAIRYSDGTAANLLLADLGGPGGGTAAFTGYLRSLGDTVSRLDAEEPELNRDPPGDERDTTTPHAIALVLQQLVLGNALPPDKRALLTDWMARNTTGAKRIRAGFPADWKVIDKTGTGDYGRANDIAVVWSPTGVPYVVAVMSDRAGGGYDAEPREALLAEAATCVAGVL

SMILES | Carbamoylation efficacy of β-lactamase BlaMab (BlaMab) | Residual activity of Ldtfm following pre-incubation (Ldtfm; [3]) | Residual activity of Ldtfm following pre-incubation (Ldtfm; [4]) | Residual activity of Ldtfm following pre-incubation (Ldtfm; [5]) | Residual activity of Ldtfm following pre-incubation (Ldtfm; [6]) | Residual activity of Ldtfm following pre-incubation (Ldtfm; [7]) | Fold reduction in the MIC of amoxicillin (M. abscessus CIP104536) | Fold reduction in the MIC of amoxicillin (M. tuberculosis H37Rv) | Carbamoylation efficacy of β-lactamase BlaC (BlaC) | remaining activity at 200 µM (LdtMt2) | further results
NC(=O)[C@@H]1CC[C@@H]2CN1C(=O)N2OS(=O)(=O)O [Avibactam, reference compound] | (1.7 ± 0.1) × 10^5 M^−1 s^−1 | 66.3% | 36.4% | 15.8% | 3.4% | 2.4% | at least 16 fold | at least 16 fold | (2.4 ± 0.8) × 10^1 M^−1 s^−1 | – | Inhibition of the β-lactamase activity of BlaMab (in words) (BlaMab; nitrocefin as the substrate): most efficacious inhibition; Inhibition of the β-lactamase activity of BlaC (in words) (BlaC; nitrocefin as the substrate, tested up to 100 μM): poorly inhibited
O=C1N2C[C@@H](CC[C@H]2Cn2cc(CN3CCOCC3)nn2)N1OS(=O)(=O)[O-].[Na+] [Compound 1a.i.11] | (4.4 ± 0.2) × 10^3 M^−1 s^−1 | 92.0% | 83.9% | 68.6% | 51.8% | 28.1% | less active | less active | <5 × 10^0 M^−1 s^−1 | 73.9% | –
COCc1cn(C[C@@H]2CC[C@@H]3CN2C(=O)N3OS(=O)(=O)O)nn1 [Compound 1a.i.13] | – | – | – | – | – | – | – | – | – | 41.7% | –
O=C(O)CCc1cn(C[C@@H]2CC[C@@H]3CN2C(=O)N3OS(=O)(=O)O)nn1 [Compound 1a.i.14] | – | – | – | – | – | – | – | – | – | 87.1% | –
O=C1N2C[C@@H](CC[C@H]2Cn2cc(-c3ccccc3)nn2)N1OS(=O)(=O)O [Compound 1a.i.16] | – | – | – | – | – | – | – | – | – | 8.3% | –
O=C1N2C[C@@H](CC[C@H]2Cn2cc(-c3cccnc3)nn2)N1OS(=O)(=O)O [Compound 1a.i] | (2.2 ± 0.1) × 10^4 M^−1 s^−1 | 88.6% | 76.1% | 63.6% | 34.3% | 15.8% | activity similar to that of avibactam | activity similar to that of avibactam | <5 × 10^0 M^−1 s^−1 | 14.5% | MIC of amoxicillin ([1]; Table 1, M. abscessus CIP104536 ΔblaMab, DBO at 15 μM, listed as None = amoxicillin alone): 4 µg/mL; MIC of amoxicillin [2]: 1 µg/mL; MIC of amoxicillin (M. abscessus CIP104536; Table 1): 16 µg/mL; MIC of amoxicillin (M. tuberculosis H37Rv): 16 µg/mL
C[Si](C)(C)c1cn(C[C@@H]2CC[C@@H]3CN2C(=O)N3OS(=O)(=O)O)nn1 [Compound 2a.i] | (6.2 ± 0.2) × 10^4 M^−1 s^−1 | 88.8% | 82.7% | 68.0% | 50.7% | 27.2% | – | – | <5 × 10^0 M^−1 s^−1 | 72.4% | –
CC1(C)S[C@@H]2[C@H](NC(=O)[C@H](N)c3ccc(O)cc3)C(=O)N2[C@H]1C(=O)O [amoxicillin, reference compound] | – | – | – | – | – | – | – | – | – | – | MIC ([1]; CIP104536, read-out: MIC of amoxicillin): 4 µg/mL; MIC ([1]; CIP104536, read-out: MIC of amoxicillin against indicated strain): 4 µg/mL; MIC ([2]; read-out: MIC of amoxicillin): 1 µg/mL; MIC [2, 8]: 1 µg/mL; MIC (M. abscessus CIP104536; Table 1, read-out: MIC of amoxicillin): > 256 µg/mL; MIC (M. abscessus CIP104536; Table 2, read-out: MIC of amoxicillin against indicated strain): > 256 µg/mL; MIC of amoxicillin (M. abscessus CIP104536; Table 1): >256 µg/mL; MIC (M. tuberculosis H37Rv; read-out: MIC of amoxicillin): 128 µg/mL; MIC (M. tuberculosis H37Rv; [8]): 128 µg/mL
